From the NIST ThermoML archive (doi:10.1016/j.jct.2016.04.020)

Experiment: mn = molality of the nth substance listed, in mol/kg
Settings: 101.3 kPa, Liquid, Vibrating tube method

O=C([O-])CC(O)(CC(=O)[O-])C(=O)[O-].[NH4+].[NH4+].[NH4+] [ammonium 2-hydroxypropane-1,2,3-tricarboxylate] + O
mass density [kg/m3]
Settings | m1 = 0.0125 | m1 = 0.025 | m1 = 0.04999 | m1 = 0.09998 | m1 = 0.1499 | m1 = 0.2
283.15 K | 1001.9 | 1003.43 | 1006.27 | 1011.68 | 1017.03 | 1022.12
287.15 K | 1001.25 | 1002.76 | 1005.56 | 1010.91 | 1016.2 | 1021.24
293.15 K | 1000.32 | 1001.83 | 1004.59 | 1009.9 | 1015.14 | 1020.13
298.15 K | 999.12 | 1000.6 | 1003.33 | 1008.6 | 1013.82 | 1018.77
303.15 K | 997.71 | 999.18 | 1001.88 | 1007.13 | 1012.32 | 1017.26
308.15 K | 996.07 | 997.53 | 1000.22 | 1005.44 | 1010.62 | 1015.55
313.15 K | 994.23 | 995.69 | 998.32 | 1003.56 | 1008.75 | 1013.67
318.15 K | 992.21 | 993.66 | 996.29 | 1001.54 | 1006.7 | 1011.63
323.15 K | 990.03 | 991.47 | 994.08 | 999.34 | 1004.49 | 1009.46
328.15 K | 987.68 | 989.12 | 991.7 | 996.99 | 1002.14 | 1007.11
333.15 K | 985.17 | 986.62 | 989.15 | 994.46 | 999.65 | 1004.59
